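Each compound was tested at five concentrations against cells in 96-well plates for 48 hours. GI50 is the concentration that inhibits growth by half. TGI: total growth inhibition.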
System: MDA-MB-468 breast
Assay: DTP human tumour cell line panel, 48 h

Structure (SMILES)	GI50 [nM]	TGI [nM]
CCn1cnc2c(Nc3cccc(Cl)c3)nc(N[C@@H]3CCCC[C@@H]3N)nc21	1860	4360
CSc1nc2sc3cc(Cl)ccc3n2c(=N)c1C#N	2130	20000
O=C(CCCCCCNC(=O)C(O)(O)C(F)(F)F)Nc1ccc(Br)cc1	821	2680
CC(=O)OC[C@]12CC[C@@H](C(=O)/C=C/c3cccnc3)[C@@H]1[C@H]1CC[C@@H]3[C@@]4(C)CC[C@H](OC(C)=O)C(C)(C)[C@@H]4CC[C@@]3(C)[C@]1(C)CC2	1770	4410
Cc1ccc(S(=O)(=O)N2CCc3ccc(O)c4c3C2Cc2cc(Cl)ccc2-4)cc1 (stereo not given)	707	1920
COC(=O)CCC/C=C\C[C@H]1C=CC(=O)/C1=C/C[C@@H](O)C/C=C\CC(F)(F)F	1740	3770
C=C(C)[C@@H]1CC[C@]2(C)[C@H](CC[C@@H]3[C@H]4[C@H]5OC[C@@]4(CCC5(C)C)CC[C@]32C)[C@@]1(C)CCCN	1580	3050
COC(=O)C1=C(C(=O)OC)C23C=C(C)C1C2=C(C)C1(CC1)[C@@](C)(O)C3=O (stereo not given in full)	181	421
COc1ccc([N+](=O)[O-])c(S(=O)(=O)c2ccc(Cl)cc2)n1	1930	4760
COc1ccc(-c2nc(-c3nc4ccc(OC)cc4[nH]3)cc3c2[nH]c2ccccc23)cc1	3160	> 100000
COc1ccccc1CNCCCN1C(=O)c2ccc3c4c(ccc(c24)C1=O)C(=O)N(CCCNCCCN)C3=O	246	2240
Cc1[nH]c(=O)[nH]c(=O)c1CO	> 100000	> 100000
COc1cc(/C=C2\COc3ccc(O)c(O)c3C2=O)cc(OC)c1	1910	6690
CC(=O)N=c1ccc2nc3c(cc(N)c4ccccc43)oc-2c1	274	1400
N#Cc1ccnc(N2C(=O)CC[C@H]2C(=O)N(c2cncc(F)c2)[C@H](C(=O)NC2CC(F)(F)C2)c2ccccc2Cl)c1	28400	> 100000
COC1=CC(c2ccc[nH]2)=N/C1=C\c1[nH]c(C)c(C(=O)CCCCC(=O)Nc2ccccc2)c1C	1720	3660
NS(=O)(=O)c1ccc(CCN=C=S)cc1	380	2860
Nc1ccc(/C=N/Nc2ccnc3c(N)cccc23)c2cccnc12	1390	2990
NCCC(O)(P(=O)(O)O)P(=O)(O)O	> 100000	> 100000

Structure (SMILES)	GI50 [nM]	TGI [nM]
CCCN(CCC)c1ccc(/C=N/NC(=O)c2cccnc2)c(Cl)c1	197	631
C[C@@H]1C=C2C(=O)O[C@@H]3CC[C@H](C1)[C@]23O	1750	5500
CC(C)n1c2c([n+](C)c1/C=C/c1ccccc1)C(=O)c1ccccc1C2=O	< 10	14.8
COc1ccc(C2=NN(C(C)=O)C(c3cn(-c4ccccc4)nc3-c3ccc(Cl)cc3)C2)cc1 (stereo not given)	> 100000	> 100000
Cc1ccc(C)c(-c2csc(Nc3ccc(C)c(C)c3)n2)c1	63100	> 100000
Cn1cc(C2=C(c3cn(CCN)c4ccccc34)C(=O)NC2=O)c2ccccc21	4730	13400
C=C1C(=O)O[C@H]2[C@H]1CC/C(COC(=O)NCc1c[nH]c3ccc(Cl)cc13)=C\CC[C@@]1(C)O[C@@H]21	913	2500
CCOC(=O)c1c(C(F)(F)F)n([O-])c2ccc(OC)cc2[n+]1=O	2580	7410
CC[C@]12C=CCN3CC[C@]4(C(=C(C(=O)OC)C1)Nc1cc5c(cc14)[C@@H]1[C@H](O5)[C@@H](O)[C@@]4(CC)CC(C(=O)OC)=C5Nc6cc(OC)ccc6[C@@]56CCN1[C@@H]46)[C@@H]32	94.4	1340
COc1cc(C(=O)c2cc3c(cc2C)OCO3)cc(OC)c1OC	31.1	–
CCCc1nc2c(C)cc(-c3nc4ccccc4n3C)cc2n1Cc1ccc(-c2ccccc2C(=O)O)cc1	37400	> 100000
Nc1c(C(=O)Nc2ccccc2Cl)sc2nc3c(cc12)CCCCCC3	2250	12000
COc1cc2nc(Nc3cccc(F)c3)nc(Nc3cc(C)[nH]n3)c2cc1OC	1630	3230
C[C@H]1[C@H](C)CC[C@]2(C(=O)O)CC[C@]3(C)C(=CC[C@@H]4[C@@]5(C)C/C(=C/c6ccco6)C(=O)C(C)(C)[C@@H]5CC[C@]43C)[C@H]12	4070	17400
COc1ccc(NC(=O)c2sc3nc(C)c(C(O)c4ccccc4)cc3c2N)cc1 (stereo not given)	1900	70100
COc1ccc(/C=C/c2n[nH]c3ccc(N4CCOC4=O)cc23)cc1	2440	4720
COc1cc(-c2cc(-c3nc4ccc(Cl)cc4[nH]3)[nH]n2)cc(OC)c1OC	2330	13500
CCOC(=O)c1sc(Nc2ccc(Cl)cc2)nc1C	1560	4240
CCCCCCCC[N+](C)(CCCCCCCC)CCCCCCCC	202	901
